Here are results for 5 compounds from US20040029736A1, “Promoting early establishment of potato crops by ethylene inhibitors” (Valent BioSciences Corporation, priority 2002, published 2004).

Structures are written as SMILES. Like-named read-outs stand apart in the source and are kept apart here.

In assay [1] the test system is potato microtubers. The conditions noted are these: potato explants treated during initiation and growth phases of microtuber development; Suttle 1998; cited from earlier work.
The test system of assay [2] is potato tubers. Kind of assay: Example 5: sprout number and emergence from soil of MCP gas-treated potato tubers at 10° C. (Table 5). The assay is classed as in vivo, Solanum tuberosum Linn. Particulars: for number of emerged sprouts per potato tuber: 50 ppm MCP; for % Emergence / Sprouts/Tuber: 50 ppm MCP for 20 hr, in soil. As to the method: Potato tubers were treated with 50 ppm MCP in a closed plastic drum (30 gallon) for 20 hr and untreated potatoes served as the control. Each treatment consisted of 9 potato tubers. The treated potatoes were then planted in soil in plastic trays and placed in a ventilated chamber at 10° C. […]

For assay [3], the system named is potato tubers. The assay can be described thus: Example 4: sprout number and length of potato tubers dipped in AVG or ethephon (Table 4). The format is in vivo, Solanum tuberosum Linn. Particulars: 1000 ppm ethephon dip; for Sprout length (cm) / Sprouts/potato: 20° C., in soil, dark chamber, 21 days after treatment. As to the method:
Potato tubers were dipped in 2000 ppm AVG or 1000 ppm ethephon solution and water-dipped potatoes served as the control. Each treatment consisted of 9 potato tubers. The treated potatoes were then put in plastic trays and placed in dark ventilated chamber at 20° C. […]

Assay [4] concerns potato tubers. The conditions noted are these: cited from earlier work; for release from dormancy and sprouting of potato tubers: literature (Alam 1994; Minato 1979; Rama 1981; Rylski 1974).
Setting [5] is: Gold Rush, 15 days after treatment.
[6] abbreviates: Gold Rush, 18 days after treatment.
The mark [7] stands for this setting: Norkotah, 15 days after treatment.
The mark [8] stands for this setting: Norkotah, 18 days after treatment.
Setting [9] is: Russet Burbank, 15 days after treatment.
[10] abbreviates: Russet Burbank, 18 days after treatment.
[11] abbreviates: Superior, 15 days after treatment.
[12] abbreviates: Superior, 18 days after treatment.

Take `C1=CC2C=CC1C2` [2,5-norbomadiene]: the sprouting of microtubers result in assay [1] is “caused precocious sprouting”.
For the compound `CC1=CC1` [MCP, 1-methylcyclopropene], the “number of emerged sprouts per potato tuber” value in assay [2] (Russet Burbank, Norkotah, and Gold Rush) is on record as “increased”; in assay [2] (Superior), “not”. Further, the “% Emergence” value in assay [2] (setting [5]) was 44%; in assay [2] (setting [6]), 56%; in assay [2] (setting [7]) it was 78%; in assay [2] (setting [8]), 78%; in assay [2] (setting [9]) it was 100%; in assay [2] (setting [10]), 100%. Also, the “% Emergence” value in assay [2] (setting [11]) and in assay [2] (setting [12]) was 89% each time. For the same compound, the Sprouts/Tuber in assay [2] (setting [5]) is 0.8 B; in assay [2] (setting [6]), 1.3 B; in assay [2] (setting [7]) it was 1.7 B; in assay [2] (setting [8]), 2.0 B; in assay [2] (setting [9]), 2.4 B; in assay [2] (setting [10]) it was 2.9 B. Besides, the results for the Sprouts/Tuber in assay [2] (setting [11]) and in assay [2] (setting [12]) were 1.2 A and 1.6 A, respectively.
As to `O=P(O)(O)CCCl` [ethephon, 2-chloroethyl phosphonic acid], the “sprouting” value in assay [3] (Russet Burbank and Superior) is “stimulate sprouting”. Moreover, the “sprout elongation” value in assay [3] (potato tubers) was “did not”. In addition, in assay [3] (Russet Burbank), the “Sprout length (cm)” value is given as 15.6 A cm and the Sprouts/potato is 10.8 B. Besides, in assay [3] (Superior), the “Sprout length (cm)” value was determined as 16.8 AB cm and the Sprouts/potato is given as 9.9 B. In addition, the “release from dormancy and sprouting of potato tubers” value in assay [4] was “enhances release from dormancy and increases sprouting”.
For the compound `C=C` [ethylene], the “release from dormancy and sprouting of potato tubers” value in assay [4] was “enhances release from dormancy and increases sprouting”. The sprout elongation result in assay [4] (literature (Minato 1979; Rylski 1974)) is listed as “inhibit sprout elongation”.
For the compound `O=[N+]([O-])[O-].[Ag+]` [silver nitrate], in assay [1], the sprouting of microtubers result is given as “caused precocious sprouting”.
